According to patent US9770421B2, “Uses for idebenone and related benzoquinones in metabolic disorders and other PPAR α/γ related diseases and conditions” (INDANIO BIOSCIENCE INC., priority 2013, dated 2017):
“Also recorded” adds a separate entry of the source.

What was measured:
C57Bl/6 db/db mice = experiment: db/db mouse study (NAFLD features); format: in vivo; details: for Decrease in liver weight in comparison to vehicle treated mice: 3 weeks
Procedure: Db/db study: Forty male C57Bl/6 db/db mice (called B6.BKS(D)-Lepr db/J) were ordered from Jackson Laboratories (#000697) at 7 weeks of age. Mice were housed individually with free access to food (2016 Teklad Global 16% Protein Rodent Diet) and water on a 14 hour light/dark cycle (6 a.m. to 8 p.m. light). […] Food was exchanged on a daily bases. Harlan corn cob bedding was provided and was changed every week or as needed. Following a 1 week acclimation, 32 mice were chosen based on desired body weight range. Remaining mice were euthanized. Mice were randomized by body weight into four treatment groups (n=8) by body weight. Dosing occurred for 21 days. Mice were euthanized by CO2 euthanasia and livers were fixed in neutral buffered formalin (NBF) for 24 h, followed by a one day fixation in 30% Sucrose and 10% Sucrose. Oil O Red staining was performed through the Pathology Research Program at the University Health Network in Toronto [46]. [table] 100 mg of db/db livers were homogenized in RIPA buffer and protein concentration was quantified using a BCA protein assay kit (Cell signalling #7780) followed by measurement of ‘Thiobarbituric Acid Reactive Substances’ (TBARS) using a TBARS assay kit (Cayman Chemicals #10009055). Total RNA was extracted from 100 mg of db/db livers using RNA STAT-60 (Tel-Test, Inc.), treated with DNase I (RNase-free, Roche), and reverse transcribed into cDNA with random hexamers using the High Capacity Reverse transcription system (Applied Biosystems, ABI). Primers used are shown below and were validated as previously described. Real-time QPCR reactions were performed on an ABI 7900 in 384-well plates containing 12.5 ng cDNA, 150 nM of each primer, and 5 μl 2×SYBR Green PCR Master Mix (ABI) in a 10 μl total volume. Relative mRNA levels were calculated using the comparative Ct method normalized to cyclophilin mRNA.

hPPARδ/β = molecular target: T1, hPPARδ/β (Homo sapiens, UniProt Q03181); experiment: HEK293 cell culture luciferase reporter assay, hPPARδ/β; details: HEK293
T1 sequence (Q03181 143-441): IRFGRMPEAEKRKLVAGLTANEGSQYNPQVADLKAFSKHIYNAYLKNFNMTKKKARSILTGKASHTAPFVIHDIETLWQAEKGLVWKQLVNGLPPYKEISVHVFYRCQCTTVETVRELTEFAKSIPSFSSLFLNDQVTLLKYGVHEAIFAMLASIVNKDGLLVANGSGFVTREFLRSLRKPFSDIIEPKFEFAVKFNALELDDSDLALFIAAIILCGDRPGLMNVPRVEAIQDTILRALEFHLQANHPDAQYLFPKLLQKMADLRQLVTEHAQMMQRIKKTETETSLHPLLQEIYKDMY

PPARα = molecular target: T2, PPARα (Homo sapiens, UniProt Q07869); experiment: HEK293 cell culture luciferase reporter assay, hPPARα
T2 sequence (Q07869 178-468): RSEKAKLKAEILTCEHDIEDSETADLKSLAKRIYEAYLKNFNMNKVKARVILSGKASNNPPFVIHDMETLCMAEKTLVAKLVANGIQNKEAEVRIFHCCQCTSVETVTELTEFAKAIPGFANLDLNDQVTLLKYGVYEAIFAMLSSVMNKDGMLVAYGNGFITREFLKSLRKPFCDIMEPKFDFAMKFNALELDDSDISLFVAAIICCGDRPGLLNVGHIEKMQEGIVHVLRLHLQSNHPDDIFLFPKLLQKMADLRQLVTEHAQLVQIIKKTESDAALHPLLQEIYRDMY

[1] = system: GFP-expressing leukocytes recruited in response to CuSO4; experiment: Zebrafish inflammation assay (CuSO4); format: in vivo
Procedure: Assay was performed as described in [47]. Fifteen dechorionated 55 hpf (hours post fertilization) embryos were transferred in each well of 6-well plates in 6 ml of embryo water. Idebenone was added at increasing concentrations (0.25, 0.75, 1.5, 3 and 5 μM). Embryos were incubated in the dark for 1 hr at 28 C, followed by a second 40 min incubation with copper sulfate (CuSO4) at a final concentration of 10 μM at 28 C in the dark. Embryos were then transferred to Eppendorf tubes and fixed in 4% paraformaldehyde in 1×PBS overnight at 4 C in the dark. Numbers of GFP+ cells were counted along the lateral line/neuromast clusters.
Previous studies have shown that PPAR agonists have anti-inflammatory properties, and can be used to treat a variety of inflammatory responses. To test if this is also true for idebenone, we used a zebrafish model of inflammation. Exposure of fish larvae to copper sulfate causes non-invasive damage to neuromast cells, which form external clusters along the lateral midline. This inflammation can be visualized via the recruitment of GFP-expressing leukocytes. As expected, this recruitment of GFP positive cells could be alleviated by addition of the known anti-inflammatory agent ibuprofen (FIG. 11).

COC1=C(OC)C(=O)C(CCCCCCCCCCO)=C(C)C1=O [Idebenone, 2-(10-hydroxydecyl)-5,6-dimethoxy-3-methyl-2,5-cyclohexadiene-1,4-dione]
Histological NAFLD features of liver (C57Bl/6 db/db mice; 3 weeks in food): reversed these histological NAFLD
Decrease in liver weight in comparison to vehicle treated mice (C57Bl/6 db/db mice; 900 mpk in food): 3%
Decrease in liver weight in comparison to vehicle treated mice (C57Bl/6 db/db mice; 1800 mpk in food): 6.5%
Liver ADFP mRNA expression (QPCR) (C57Bl/6 db/db mice; 21 days): down regulated
Liver PLIN4 mRNA expression (QPCR) (C57Bl/6 db/db mice; 21 days): down regulated
Liver lipid content (Oil Red O staining) (C57Bl/6 db/db mice; 21 days, 900/1800 mpk idebenone, 10 mpk rosiglitazone): significant dose-dependent decrease in fat; also recorded: significant dose dependent decrease in fat
Liver lipid peroxides (TBARS) (C57Bl/6 db/db mice; liver homogenates, 21 days): reduced
Response of PPARδ/β in cultured cells (hPPARδ/β): no response
EC50 (PPARα): 3 µM
Maximum activation level versus full agonist, PPARα (PPARα; HEK293, full agonist GW7647): significantly lower than those obtained using the full agonists
Recruitment of GFP positive leukocytes (anti-inflammatory activity) ([1]; 10 μM CuSO4, 55 hpf embryos): robust anti-inflammatory agent; also recorded: anti-inflammatory activity
Concentration at which anti-inflammatory activity is detectable ([1]; idebenone 0.25-5 μM tested): sub micromolar
